≈ marks a conversion by molar mass, not a printed value. Where a name gives a salt, the structure may show the parent alone. Read-outs that look alike come from different tables or passages of the source.

The values that follow come from publication PMC9145846, “Polycyclic Phenol Derivatives from the Leaves of Spermacoce latifolia and Their Antibacterial and α-Glucosidase Inhibitory Activity” (Molecules, 2022).

Test [1] relates to Escherichia coli (CMCC44102). The experiment in a line: Antibacterial assay (resazurin, 96-well doubling dilution), EC. The format is cell-based. Here is the method: (§1) The antibacterial assay was monitored in 96-well plates by using a method as described previously. Briefly, 100 μL indicator solution (resazurin in sterile water, 100 μg/mL) was first placed into each of the sterility control wells (11th column) on the 96-well plates, and the indicator solution (about 7.5 mL, 100 μg/mL) was mixed with test bacteria (5 mL, 10^6 cfu/mL, OD600 = 0.07) followed by transferring (100 μL, each) to growth control wells (12th column) and all test wells (1–10th column). Then, each of 100 μL of test compounds (1 mg/mL) in beef extract peptone medium, along with the positive control solutions (prepared by adding kanamycin sulfate and vancomycin instead of the samples) and the negative control solution (3% DMSO of beef extract peptone medium), were applied to the wells in the 1st column of the plates. Once all samples and controls were properly applied to the 1st column of wells on the plate, half of the homogenized content (100 μL solution) was then parallel-transferred from the 1st column wells to the 2nd column wells, and each subsequent well was treated similarly (doubling dilution) up to the 10th column, followed by discarding the last 100 μL aliquot. Finally, the plates were incubated at 37 °C for 5–6 h until the color of growth control change to pink. The lowest concentration for each test compound at which […] was recorded as the MIC value of the test compound. In the bioassay, Gram-(+) bacterial strains of Staphyloccocus aureus (CMCC26003), methicillin-resistant Staphylococcus aureus (MRSA), Bacillus cereus (CMCC63302), Bacillus subtilis (CMCC63501), and Gram-(−) bacterial strain of Escherichia coli (CMCC44102) were used for the test, and they were all purchased from the Guangdong Institute of Microbiology (Guangzhou, China).
A general note: The colour change of resazurin is a common sign of viable cells or microbes.

In test [2] the test system is Staphyloccocus aureus (CMCC26003). The experiment in a line: Antibacterial assay (resazurin, 96-well doubling dilution), SA. The format is cell-based. The note with it: for MIC: read-out: MIC, SA. Here is the method:
as §1

Another test has as its target α-glucosidase (Saccharomyces cerevisiae, UniProt P53341). Briefly: α-Glucosidase inhibition assay (PNPG substrate). As to conditions: read-out: α-Glucosidase inhibitory activity IC50; mean ± SD (n = 3); pH 6.8, PNPG, 37 °C, 15 min.
The subject of test [3] is methicillin-resistant Staphylococcus aureus (MRSA). The experiment in a line: Antibacterial assay (resazurin, 96-well doubling dilution), MRSA. The format is cell-based. As to conditions: for MIC: MRSA, read-out: MIC, MRSA. As to the method: as §1
Test [4] has as its system Bacillus subtilis (CMCC63501). Briefly: Antibacterial assay (resazurin, 96-well doubling dilution), BS. The format is cell-based. Here is the method: as §1
The subject of test [5] is Bacillus cereus (CMCC63302). The experiment in a line: Antibacterial assay (resazurin, 96-well doubling dilution), BC. The format is cell-based. Here is the method:
as §1

Setting [6] is: 37 °C, 5–6 h, resazurin colour change.
Setting [7] is: Staphyloccocus aureus, 37 °C, 5–6 h, resazurin colour change.
Setting [8] is: methicillin-resistant Staphylococcus aureus, 37 °C, 5–6 h, resazurin colour change.
The mark [9] stands for this setting: CMCC44102, 37 °C, 5–6 h, resazurin colour change, read-out: MIC, EC.
Where [10] appears, read: CMCC63501, 37 °C, 5–6 h, resazurin colour change, read-out: MIC, BS.
The mark [11] stands for this setting: CMCC63302, 37 °C, 5–6 h, resazurin colour change, read-out: MIC, BC.

α-glucosidase, sequence (P53341 whole entry): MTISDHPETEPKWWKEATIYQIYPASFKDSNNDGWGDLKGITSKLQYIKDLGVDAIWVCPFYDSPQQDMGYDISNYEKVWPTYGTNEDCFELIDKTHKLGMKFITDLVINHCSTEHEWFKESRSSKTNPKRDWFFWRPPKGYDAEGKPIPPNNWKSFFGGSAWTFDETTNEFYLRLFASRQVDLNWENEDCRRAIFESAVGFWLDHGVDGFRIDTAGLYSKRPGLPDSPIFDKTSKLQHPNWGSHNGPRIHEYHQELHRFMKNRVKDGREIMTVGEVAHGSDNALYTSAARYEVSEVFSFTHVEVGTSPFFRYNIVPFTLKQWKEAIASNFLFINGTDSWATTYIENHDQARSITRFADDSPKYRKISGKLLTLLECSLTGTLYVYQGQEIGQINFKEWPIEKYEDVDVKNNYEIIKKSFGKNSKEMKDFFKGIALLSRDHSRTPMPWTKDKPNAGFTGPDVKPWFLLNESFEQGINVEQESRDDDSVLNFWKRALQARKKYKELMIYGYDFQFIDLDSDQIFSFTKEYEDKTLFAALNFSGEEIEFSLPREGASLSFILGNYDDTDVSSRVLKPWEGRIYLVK
Description for α-glucosidase: The a-glucosidase inhibitory activity of the ten isolated compounds was determined in 96-well microtiter plates following the method as described previously [15, 42]. In brief, α-glucosidase (20 μL, 0.5 U/mL) and various concentrations (500, 250, 125, 62.5, 31.2, 15.6, 7.8, 3.9 µg/mL) of tested compounds (120 μL) in 67 mM phosphate buffer (pH 6.8) were mixed in 96-well microtiter plates at room temperature for 10 min. Reactions were initiated by addition of 20 μL of 5.0 mM p-nitrophenyl-α-d-glucopyranoside (PNPG). The reaction mixture was incubated for 15 min at 37 °C in a final volume of 160 μL. Then, 0.2 M Na2CO3 (80 μL) was added to the incubation solution to stop the reaction and the absorbance was determined at 405 nm (for p-nitrophenol). The negative blank was set by adding phosphate buffer instead of test compounds via the same experimental procedure. […] The blank was set by adding phosphate buffer instead of the α-glucosidase using the same method. Inhibition rate (%) = [(ODnegative control − ODblank) − (ODtest − ODtest blank)]/(ODnegative blank − ODblank) × 100%. IC50 values were calculated and expressed as means ± standard deviations (SD) and SPSS 23.0 software was used for the analysis of variances.

On to “6,7,8,4′-tetramethoxyflavone [Compound 10]”, for which the “MIC, EC” value in test [1] (setting [6]) is over 100 µg/mL. Moreover, the “MIC, SA” value in test [2] (setting [7]) is 62.5 µg/mL. In addition, the IC50 at α-glucosidase is over 1000 µM. The “MIC, MRSA” value in test [3] (setting [8]) is listed as over 100 µg/mL. Also, the “MIC, BS” value in test [4] (setting [6]) amounted to 15.6 µg/mL. Further, the “MIC, BC” value in test [5] (setting [6]) turned out to be 62.5 µg/mL.
For the compound `CC(=O)c1cc2c(O)c3oc(=O)ccc3cc2o1` [Compound 1, 2-acetyl-4-hydroxy-6H-furo [2,3-g]chromen-6-one], the minimal inhibitory concentration (MIC) is over 100 µg/mL in test [1] (setting [9]); 62.5 µg/mL (≈ 256 µM) in test [2] (setting [7]); over 100 µg/mL in test [3] (setting [8]); 31.2 µg/mL (≈ 128 µM) in test [4] (setting [10]); 31.2 µg/mL (≈ 128 µM) in test [5] (setting [11]). The “MIC, MRSA” value in test [3] (setting [8]) is “inactive”.
Consider `CC(O)(CO)c1cc2c(O)c3oc(=O)ccc3cc2o1` (stereo not drawn) [Compound 2, 2-(1′,2′-dihydroxypropan-2′-yl)-4-hydroxy-6H-furo [2,3-g][1] benzopyran-6-one], for which the MIC in test [1] (setting [9]) is over 100 µg/mL; in test [2] (setting [7]), 62.5 µg/mL (≈ 226 µM); in test [3] (setting [8]) it was over 100 µg/mL; in test [4] (setting [10]) it was 62.5 µg/mL (≈ 226 µM); in test [5] (setting [11]), 62.5 µg/mL (≈ 226 µM). Further, the “MIC, MRSA” value in test [3] (setting [8]) was “inactive”.
As to `COc1c(O)cc2oc3cc4c(c(O)c3c(=O)c2c1CC=C(C)C)C=CC(C)(C)O4` [Compound 4, 5,9-dihydroxy-8-methoxy-2,2-dimethyl-7-(3-methylbut-2-enyl)-2H,6H-pyrano [3,2-b]xanthen-6-one], the minimal inhibitory concentration (MIC) is over 100 µg/mL in test [1] (setting [9]); 1.95 µg/mL (≈ 4.77 µM) in test [2] (setting [7]); 1.95 µg/mL (≈ 4.77 µM) in test [3] (setting [8]); 1.95 µg/mL (≈ 4.77 µM) in test [4] (setting [10]); 1.95 µg/mL (≈ 4.77 µM) in test [5] (setting [11]).
Consider `O=c1ccc2cc(O)c(O)cc2o1` [Compound 5, esculetin], for which the MIC was over 100 µg/mL in test [1] (setting [9]); 31.2 µg/mL (≈ 175 µM) in test [2] (setting [7]); over 100 µg/mL in test [3] (setting [8]); 7.81 µg/mL (≈ 43.8 µM) in test [4] (setting [10]); 31.2 µg/mL (≈ 175 µM) in test [5] (setting [11]). Moreover, in test [3] (setting [8]), the “MIC, MRSA” value is “inactive”.
Take `COc1cc2oc(=O)ccc2cc1O` [Compound 6, isoscopoletin]: the MIC in test [1] (setting [9]), in test [2] (setting [7]), in test [3] (setting [8]), in test [4] (setting [10]) and in test [5] (setting [11]) was over 100 µg/mL in each case.
Regarding `COc1cc2ccc(=O)oc2c(O)c1O` [Compound 7, 7,8-dihydroxy-6-methoxycoumarin], the minimal inhibitory concentration (MIC) in test [1] (setting [9]), in test [2] (setting [7]), in test [3] (setting [8]), in test [4] (setting [10]) and in test [5] (setting [11]) was over 100 µg/mL throughout.
Consider `COc1c(O)cc2c(=O)oc3c(OC)c(O)ccc3c2c1O` [Compound 8, 3,8,10-trihydroxy-4,9-dimethoxy-6H-benzo[c]chromen-6-one], for which the MIC in test [1] (setting [9]) was over 100 µg/mL; in test [2] (setting [7]), 15.6 µg/mL (≈ 51.3 µM); in test [3] (setting [8]) it was over 100 µg/mL; in test [4] (setting [10]) it was 15.6 µg/mL (≈ 51.3 µM); in test [5] (setting [11]), 31.2 µg/mL (≈ 103 µM). Also, the “MIC, MRSA” value in test [3] (setting [8]) was “inactive”.
As to `O=c1cc(-c2ccc(O)cc2)oc2cc(O)c(O)cc12` [Compound 9, 6,7,4′-trihydroxyflavone], the minimal inhibitory concentration (MIC) in test [1] (setting [9]), in test [2] (setting [7]), in test [3] (setting [8]), in test [4] (setting [10]) and in test [5] (setting [11]) was over 100 µg/mL throughout.
With `NC[C@H]1O[C@H](O[C@H]2[C@H](O)[C@@H](O[C@H]3O[C@H](CO)[C@@H](O)[C@H](N)[C@H]3O)[C@H](N)C[C@@H]2N)[C@H](O)[C@@H](O)[C@@H]1O` [K, Kanamycin sulfate, reference compound], the MIC in test [1] (setting [9]) was 1.95 µg/mL; in test [2] (setting [7]), 1.95 µg/mL; in test [3] (setting [8]) it was over 100 µg/mL; in test [4] (setting [10]), 1.95 µg/mL; in test [5] (setting [11]), 3.9 µg/mL.
As to `CN[C@H](CC(C)C)C(=O)N[C@H]1C(=O)N[C@@H](CC(N)=O)C(=O)N[C@H]2C(=O)N[C@H]3C(=O)N[C@H](C(=O)N[C@H](C(=O)O)c4cc(O)cc(O)c4-c4cc3ccc4O)[C@H](O)c3ccc(c(Cl)c3)Oc3cc2cc(c3O[C@@H]2O[C@H](CO)[C@@H](O)[C@H](O)[C@H]2O[C@H]2C[C@](C)(N)[C@H](O)[C@H](C)O2)Oc2ccc(cc2Cl)[C@H]1O` [V, Vancomycin, reference compound], the MIC in test [1] (CMCC44102, read-out: MIC, EC) is over 100 µg/mL; in test [2], 1.95 µg/mL (≈ 1.35 µM); in test [3] (Staphylococcus aureus), 3.9 µg/mL (≈ 2.69 µM); in test [4] (CMCC63501, read-out: MIC, BS), 1.95 µg/mL (≈ 1.35 µM); in test [5] (CMCC63302, read-out: MIC, BC), 1.95 µg/mL (≈ 1.35 µM).

As a reminder, the IC50 is the concentration that gives 50% inhibition. As a reminder, the MIC is the smallest concentration in the dilution series that meets the test's criterion for growth inhibition.
